Measurements taken from ChEMBL document CHEMBL4699525, “Design and synthesis of new indanol-1,2,3-triazole derivatives as potent antitubercular and antimicrobial agents” (Bioorg Med Chem Lett, 2020).
Values after ≈ are worked out from the molar mass of the structure shown. Active and inactive are the calls of the source. The rule behind the calls is not given here.

Assays:
[1] = test system: Bacillus cereus; test: Antibacterial activity against Bacillus cereus assessed as inhibition of bacterial growth incubated for 24 hrs by agar well diffusion method; type: functional
[2] = test system: Shigella boydii; test: Antibacterial activity against Shigella boydii assessed as inhibition of bacterial growth incubated for 24 hrs by agar well diffusion method; type: functional
[3] = test system: Escherichia coli; test: Antibacterial activity against Escherichia coli assessed as inhibition of bacterial growth incubated for 24 hrs by agar well diffusion method; type: functional
[4] = test system: Pseudomonas aeruginosa; test: Antibacterial activity against Pseudomonas aeruginosa assessed as inhibition of bacterial growth incubated for 24 hrs by agar well diffusion method; type: functional
[5] = test system: Saccharomyces cerevisiae; test: Antifungal activity against Saccharomyces cerevisiae assessed as inhibition of fungal growth incubated for 24 hrs by agar well diffusion method; type: functional
[6] = test system: Staphylococcus aureus; test: Antibacterial activity against Staphylococcus aureus assessed as inhibition of bacterial growth incubated for 24 hrs by agar well diffusion method; type: functional
[7] = test system: Bacillus subtilis; test: Antibacterial activity against Bacillus subtilis assessed as inhibition of bacterial growth incubated for 24 hrs by agar well diffusion method; type: functional
[8] = test system: Klebsiella aerogenes; test: Antibacterial activity against Enterobacter aerogenes assessed as inhibition of bacterial growth incubated for 24 hrs by agar well diffusion method; type: functional
[9] = test system: Salmonella typhi; test: Antibacterial activity against Salmonella typhi assessed as inhibition of bacterial growth incubated for 24 hrs by agar well diffusion method; type: functional; details: Salmonella enterica subsp. enterica serovar Typhi
[10] = test system: Salmonella enterica subsp. enterica serovar Abony; test: Antibacterial activity against Salmonella abony assessed as inhibition of bacterial growth incubated for 24 hrs by agar well diffusion method; type: functional
[11] = test system: Aspergillus niger; test: Antifungal activity against Aspergillus niger assessed as inhibition of fungal growth incubated for 24 hrs by agar well diffusion method; type: functional
[12] = test system: Candida albicans; test: Antifungal activity against Candida albicans assessed as inhibition of fungal growth incubated for 24 hrs by agar well diffusion method; type: functional
[13] = target: T1, Enoyl-[acyl-carrier-protein] reductase [NADH] (Mycobacterium tuberculosis) (UniProt P9WGR1); test: Inhibition of InhA in Mycobacterium tuberculosis H37Rv assessed antitubercular activity by measuring inhibition of bacterial growth incubated for 7 days by MABA assay; details: time 7.0 day
T1 sequence (whole entry): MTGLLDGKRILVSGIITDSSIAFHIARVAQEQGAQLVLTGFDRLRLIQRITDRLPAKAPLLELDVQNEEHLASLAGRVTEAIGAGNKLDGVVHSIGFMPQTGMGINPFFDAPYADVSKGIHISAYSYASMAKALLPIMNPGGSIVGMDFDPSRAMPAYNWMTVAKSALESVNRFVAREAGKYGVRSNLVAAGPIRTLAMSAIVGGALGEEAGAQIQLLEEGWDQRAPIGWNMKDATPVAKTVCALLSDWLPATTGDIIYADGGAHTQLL

SMILES	diameter of the inhibition zone (DIZ) [1]	diameter of the inhibition zone (DIZ) [2]	diameter of the inhibition zone (DIZ) [3]	diameter of the inhibition zone (DIZ) [4]	diameter of the inhibition zone (DIZ) [5]	diameter of the inhibition zone (DIZ) [6]	diameter of the inhibition zone (DIZ) [7]	diameter of the inhibition zone (DIZ) [8]	diameter of the inhibition zone (DIZ) [9]	diameter of the inhibition zone (DIZ) [10]	diameter of the inhibition zone (DIZ) [11]	diameter of the inhibition zone (DIZ) [12]	MIC [13]
Cc1ccc([N+](=O)[O-])cc1NC(=O)Cn1cc(COc2ccc3c(c2)CCC3)nn1	inactive	9 mm	inactive	9 mm	inactive	inactive	inactive	12 mm	inactive	inactive	inactive	inactive	> 25 µM
Clc1ccc(-n2cc(COc3ccc4c(c3)CCC4)nn2)cc1	inactive	inactive	inactive	inactive	8 mm	8 mm	inactive	inactive	inactive	inactive	inactive	10 mm	> 25 µM
Cc1ccc(-n2cc(COc3ccc4c(c3)CCC4)nn2)cc1	inactive	inactive	inactive	inactive	inactive	inactive	inactive	inactive	inactive	inactive	inactive	12 mm	> 25 µM
Cc1cc([N+](=O)[O-])ccc1NC(=O)Cn1cc(COc2ccc3c(c2)CCC3)nn1	inactive		inactive	inactive	inactive	inactive	inactive	inactive	inactive	inactive	inactive	inactive	> 25 µM
O=C(Cn1cc(COc2ccc3c(c2)CCC3)nn1)Nc1ccc(F)cc1	inactive	11 mm	inactive	inactive	inactive	13 mm	inactive	inactive	inactive	inactive	inactive	13 mm	> 25 µM
CC[C@@H](CO)NCCN[C@@H](CC)CO													3.12 µM (≈ 0.638 µg/mL)
Cc1ccc(NC(=O)Cn2cc(COc3ccc4c(c3)CCC4)nn2)cc1	inactive	inactive	inactive	inactive	inactive	8 mm	inactive	inactive	inactive	inactive	inactive	12 mm	> 25 µM
O=C(O)c1cn(C2CC2)c2cc(N3CCNCC3)c(F)cc2c1=O													1.56 µM (≈ 0.517 µg/mL)
O=C(Cn1cc(COc2ccc3c(c2)CCC3)nn1)Nc1ccc(Br)cc1	inactive	13 mm	inactive	5 mm	12 mm	inactive	inactive	12 mm	inactive	inactive	inactive	inactive	> 25 µM
Cc1ccccc1NC(=O)Cn1cc(COc2ccc3c(c2)CCC3)nn1	inactive	11 mm	inactive	inactive	inactive	inactive	inactive	inactive	inactive	inactive	inactive	inactive	> 25 µM
O=C(Cn1cc(COc2ccc3c(c2)CCC3)nn1)Nc1ccccc1Cl	inactive		inactive	inactive	inactive	inactive	inactive	inactive	inactive	inactive	inactive	inactive	> 25 µM
Brc1ccc(-n2cc(COc3ccc4c(c3)CCC4)nn2)cc1	inactive	inactive	8 mm	inactive	7 mm	inactive	inactive	inactive	inactive	inactive	inactive	11 mm	> 25 µM
CCc1ccc(NC(=O)Cn2cc(COc3ccc4c(c3)CCC4)nn2)cc1	inactive	11 mm	inactive	inactive	inactive	inactive	inactive	inactive	inactive	inactive	inactive	inactive	> 25 µM
O=C(Cn1cc(COc2ccc3c(c2)CCC3)nn1)Nc1ccc(Cl)cc1	inactive	inactive	inactive	inactive	10 mm	8 mm	inactive	inactive	inactive	inactive	inactive	15 mm	> 25 µM
CCc1ccc(-n2cc(COc3ccc4c(c3)CCC4)nn2)cc1	inactive	inactive	inactive	inactive		7 mm	inactive	inactive	inactive	inactive	inactive	13 mm	> 25 µM
COc1ccc(NC(=O)Cn2cc(COc3ccc4c(c3)CCC4)nn2)cc1	inactive	inactive	inactive	inactive	inactive	inactive	inactive	inactive	inactive	inactive	inactive	inactive	> 25 µM
